Test results taken from PMC5113906, “Ligand autoradiographical quantification of histamine H3 receptor in human dementia with Lewy bodies” (Pharmacological Research, 2016).

Molecular target: T1, histamine H3 receptor (hH3R 445) (Homo sapiens, UniProt Q9Y5N1)
T1 construct: gene HRH3; hH3 445 isoform (also hH3 365), transiently expressed in HEK293 cells
Experiment: [3H]GSK189254 saturation radioligand binding; autoradiography on human brain sections

T1 sequence (Q9Y5N1 whole entry, canonical isoform): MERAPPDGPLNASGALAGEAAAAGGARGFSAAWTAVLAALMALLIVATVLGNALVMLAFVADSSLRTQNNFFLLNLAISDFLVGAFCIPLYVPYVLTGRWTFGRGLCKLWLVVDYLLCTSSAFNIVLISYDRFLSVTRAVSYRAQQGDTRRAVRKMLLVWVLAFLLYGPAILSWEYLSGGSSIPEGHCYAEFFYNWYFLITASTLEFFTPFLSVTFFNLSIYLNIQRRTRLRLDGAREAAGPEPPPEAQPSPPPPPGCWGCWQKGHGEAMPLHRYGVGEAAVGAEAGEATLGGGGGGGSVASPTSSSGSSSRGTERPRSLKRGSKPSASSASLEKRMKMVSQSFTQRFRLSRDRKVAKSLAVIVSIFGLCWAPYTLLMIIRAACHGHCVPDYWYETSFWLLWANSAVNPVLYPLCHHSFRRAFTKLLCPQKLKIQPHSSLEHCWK

CNC(=O)c1ccc(Oc2ccc3c(c2)CCN(C2CCC2)CC3)nc1 [GSK189254]
Kd: 0.16 ± 0.04 nM
